Patent US20250177324A1, “A[…], AND PREPARATION METHOD THEREFOR AND USE THEREOF” (SHANGHAI ZHIGEN PHARMACEUTICAL & TECHNOLOGY CO. LTD., priority 2022, published 2025)
Where two headings read alike, the source gives them in different places.

Experiments:
[1] = Solid-state chemical stability under different storage conditions (liquid chromatography); format: physicochemical; details: 40° C., 75% RH
Method: The HPLC conditions were as follows:
Configuration of test solution: appropriate amount of sample was dissolved and diluted with a diluent (0.03 mol/L phosphate buffer-acetonitrile (80:20)) to make 1 mg/mL solution.
Chromatographic conditions: according to the high performance liquid chromatography (Chinese Pharmacopoeia 2020 version of the four general 0512) test, using octadecyl-bonded silica gel (Agilent Eclipse Plus C18, 4.6 mm*250 mm, 5.0 μm, P/N for 959990-902 or a chromatographic column with equivalent performance) as a filler; 0.03 mol/L phosphate buffer (4.08 g of potassium dihydrogen phosphate was dissolved in 1000 ml of water and shaken well) was used as mobile phase A and acetonitrile as mobile phase B at a flow rate of 1 ml/min, the column temperature was 30° C., the detection wavelength was 220 nm, the injection volume was 10 ul, and the sample plate was controlled to 8° C. and running for 65 min. Gradient elution was performed according to the following table: […]
Configuration of test solution: appropriate amount of the product was dissolved and diluted with a diluent (0.1% phosphoric acid-acetonitrile (80:20)) to make 1 mg/mL solution.
Chromatographic conditions: according to the high performance liquid chromatography (Chinese Pharmacopoeia 2020 version of the four general 0512) test, using octadecyl bonded silica gel (Agilent Eclipse Plus C18, 4.6 mm*250 mm, 5.0 μm, P/N 959990-902 or a chromatographic column with equivalent performance) as a filler; 0.1% phosphate buffer (1 ml of phosphoric acid in 1000 ml of water and shake well) as mobile phase A, acetonitrile as mobile phase B, flow rate of 1 ml/min, column temperature of 30° C., detection wavelength of 220 nm, injection volume of 10 ul, running for 48 minutes. Gradient elution was performed according to the following table: […]

[2] = In vivo pharmacokinetic experiments in beagle dogs; details: beagle dog
Method: Healthy male beagle dogs, randomly grouped with 3 dogs in each group, were given the test compound by gavage or intravenous injection.
(§1) Each test compound was dissolved in saline to form a certain concentration solution for administration.
Fasting but not abstaining from water for 12-14 hours on the day before administration, and food was given 4 h after administration; no fasting was done for the intravenous experiments.
Each animal was sampled with 0.6 mL of blood each time through the jugular vein and anticoagulated with EDTAK2. The collection time points were 5 min, 10 min, 15 min, 30 min, 1 h, 2 h, 4 h, 6 h, 8 h, and 24 h after administration of the subject in group PO; group IV: 2 min, 5 min, 15 min, 30 min, 1 h, 2 h, 4 h, 6 h, 24 h after administration of the subject. Blood samples were placed on ice after collection and centrifuged to separate plasma within 30 min (centrifugation conditions: 5000 rpm, 10 min, 4° C.). The samples were stored at −80° C. before analysis.

[3] = Brain tissue distribution study in rats; format: in vivo; details: SD rats, 10 mg/kg gavage
Method: Healthy male SD rats, randomly grouped with 3 rats in each group, were given the test compounds by gavage.
as §1
Fasting but not abstaining from water for 12-14 hours on the day before administration, and food was given 4 h after administration.
Brain tissues were collected after the animals were bled, cleaned, and homogenized with 50% ice methanol 1:4 (m/v). The collection time points were 5 min, 10 min, 30 min, and 2 h after the administration of subjects; 30.0 μL of tissue samples were taken (the samples were taken from the refrigerator at −80° C. and vortexed for 30 s after natural dissolution at room temperature) into 1.5 mL centrifugal tubes, and 300.0 μL of the internal standard solution (30 ng/mL buspirone in acetonitrile) was added; the samples were vortexed for 60 s, and centrifuged for 3 min (the centrifugal force was 12,000 rpm). 75 μL of the supernatant was transferred to a 96-well plate containing an equal volume of water, shaken to mix well and then sampled for LC-MS/MS analysis, the sample volume is 10 μL.

C57 mice [4] = assay: Forced swim test of oral administration in mice (antidepressant activity); format: in vivo; details: Mus musculus, po, reduction of immobility time vs blank group, single gavage 20 mg/kg
Method: To investigate the effects of different compounds on depression-like behavior in C57 mice by single oral administration of 20 mg/kg for 1 h and 24 h followed by forced swimming experiment, respectively.
The experimental animals were 6-week-old C57 mice, male, C57 breed mice purchased from Shanghai Slaughter Laboratory Animal Co. Ltd, weighing 20.45±0.19 g. The animals arrived at the Animal Breeding Center of the Shanghai Institute of Pharmaceutical Sciences, Chinese Academy of Sciences (Animal Production License: SCXK9[Shanghai]2004-0002, Use License: SYXK [Shanghai]2003-0029) before the experiments and were acclimated to the animal facilities for more than 3 days, 6 animals/cage were feed. The feeding environment was room temperature 23±0.2° C. and 12/12 h day/night alternating light and dark. Prior to behavioral testing, animals were moved to the behavioral testing room 2 hours in advance to acclimatize them to the environment and reduce their nervousness.
Preparation of the test material: the test compounds were weighed and dissolved in 0.9% NaCl solution, mixed well, and prepared into 1 mg/ml and 2 mg/ml solution for use, respectively.
24 h prior to drug administration, mice were placed in a cylindrical tank to acclimatize to the water environment for 10 min. On the day of the behavioral test, the animals were administered the drug once, by gavage/intraperitoneal injection at 1 h and 24 h prior to the behavioral test, respectively (as shown in Table 1).
The antidepressant effect of the compounds was evaluated by their ability to cause a reduction in the immobility time of the animals in the forced swim test compared to the blank group.

C57 mice [5] = assay: as above; format: in vivo; details: Mus musculus, reduction of immobility time vs blank group, abdominal injection 10 mg/kg
[6] = test 1 h after dosing, read-out: 1 h inhibition (%)
[7] = test 24 h after dosing, read-out: 24 h inhibition (%)

CN[C@@]1(c2ccc(C(F)(F)F)cc2)CCC[C@](C)(O)C1=O.Cl [Compound 73, (2S,6R)-2-hydroxy-2-methyl-6-methylamino-6-(4-(trifluoromethyl)phenyl)cyclohexan-1-one hydrochloride]
Stability of solid state compound, 0 Days (%) ([1]; 0 days, liquid chromatography): 99.94%
Stability of solid state compound, 5 Days (%) ([1]; 5 days): 99.90%
Stability of solid state compound, 10 Days (%) ([1]; 10 days): 99.88%
Stability of solid state compound, 30 Days (%) ([1]; 30 days): 99.89%
AUC0-t ([2]; 1 mg/kg i.v.): 941 ngh/mL
AUC0-∞ ([2]; 1 mg/kg i.v.): 970 ngh/mL
AUC0-t ([2]; 5 mg/kg P.O.): 2179 ngh/mL
AUC0-∞ ([2]; 5 mg/kg P.O.): 2224 ngh/mL
F ([2]; 5 mg/kg P.O.): 46.3%
MRT ([2]; male, plasma, iv, 1 mg/kg i.v.): 1.84 h
clearance ([2]; male, plasma, iv, 1 mg/kg i.v.): 17.7 mL/min/kg
half-life ([2]; male, plasma, iv, 1 mg/kg i.v.): 1.61 h
Vd ([2]; male, plasma, iv, 1 mg/kg i.v., read-out: Vss): 1.93 L/kg
Cmax ([2]; male, plasma, po, 5 mg/kg P.O.): 1020 ng/mL
MRT ([2]; male, plasma, po, 5 mg/kg P.O.): 2.57 h
Tmax ([2]; male, plasma, po, 5 mg/kg P.O.): 0.42 h
half-life ([2]; male, plasma, po, 5 mg/kg P.O.): 2.33 h
AUC0-t brain ([3]; brain): 6172 ng·h/g
Cmax brain ([3]; brain): 5567 ng/g
Kp ([3]; male, rat, brain and plasma, po, read-out: brain/plasma ratio): 3.4
AUC0-t ([3]; male, rat, po, plasma): 1820 ng·h/mL
Cmax ([3]; male, rat, po, plasma): 1600 ng/mL
inhibition in vivo at 20 mg/kg (C57 mice [4]; [6]): 68.7 ± 0.6%
inhibition in vivo at 20 mg/kg (C57 mice [4]; [7]): 39.4 ± 4.4%

CN[C@]1(c2ccccc2Cl)CCCCC1=O [S-ketamine]
inhibition in vivo at 10 mg/kg (C57 mice [5]; [6]): 20.7 ± 3.7%
inhibition in vivo at 10 mg/kg (C57 mice [5]; [7]): 23.6 ± 1%
